The NIST ThermoML archive (doi:10.1021/je100078w)

Tests used:
[1] = Liquid
[2] = wn = mass fraction of the nth substance listed; conditions: 101 kPa, Liquid

C[NH+](CCO)CCO.F[B-](F)(F)F
[1], 101.33 kPa
Conditions	mass density [kg/m3]	viscosity [mPa·s]
303.15 K	1425.56	208.8
313.15 K	1418.1	117.7
323.15 K	1410.63	71.79
333.15 K	1403.2	46.85
343.15 K	1395.85	32.35

C[NH+](CCO)CCO.F[B-](F)(F)F + O
[2]
Conditions	mass density, 303.15 K [kg/m3]	mass density, 313.15 K [kg/m3]	mass density, 323.15 K [kg/m3]	mass density, 333.15 K [kg/m3]	mass density, 343.15 K [kg/m3]	viscosity, 303.15 K [mPa·s]	viscosity, 313.15 K [mPa·s]	viscosity, 323.15 K [mPa·s]	viscosity, 333.15 K [mPa·s]	viscosity, 343.15 K [mPa·s]
w1 = 0.3001	1084.71	1075.11	1067.02	1058.01	1047.87	–	–	–	–	–
w2 = 0.3001	–	–	–	–	–	1.245	1.041	0.8831	0.7874	0.7196

CCCCn1cc[n+](C)c1.F[B-](F)(F)F [1-butyl-3-methylimidazolium tetrafluoroborate]
[1], 101.33 kPa
Conditions	mass density [kg/m3]	viscosity [mPa·s]
303.15 K	1195.7	68.9
313.15 K	1188.62	44.73
323.15 K	1181.59	30.81
333.15 K	1174.6	22.28
343.15 K	1167.67	16.75

CCCCn1cc[n+](C)c1.F[B-](F)(F)F [1-butyl-3-methylimidazolium tetrafluoroborate] + O
[2], w1 = 0.2998
Conditions	mass density [kg/m3]	viscosity [mPa·s]
303.15 K	1045.35	1.292
313.15 K	1039.84	1.046
323.15 K	1033.76	0.8731
333.15 K	1027.74	0.7473
343.15 K	1021.18	0.6549

CCCCn1cc[n+](C)c1.F[B-](F)(F)F [1-butyl-3-methylimidazolium tetrafluoroborate] + OCCN(CCO)CCO
[2], w2 = 0
Conditions	mass density [kg/m3]	viscosity [mPa·s]
303.15 K	1195.7	68.9
313.15 K	1188.62	44.73
323.15 K	1181.59	30.81
333.15 K	1174.6	22.28
343.15 K	1167.67	16.75

CN(CCO)CCO.CN(CCO)CCO.O=S(=O)(O)O [2,2'-(methylimino)diethanol sulfate (2:1)]
[1], 101.33 kPa
Conditions	mass density [kg/m3]	viscosity [mPa·s]
303.15 K	1282.49	–
313.15 K	1276.83	1858
323.15 K	1271.25	990.8
333.15 K	1265.72	571.2
343.15 K	1260.24	350.4

CN(CCO)CCO.CN(CCO)CCO.O=S(=O)(O)O [2,2'-(methylimino)diethanol sulfate (2:1)] + O
[2]
Conditions	mass density, 303.15 K [kg/m3]	mass density, 313.15 K [kg/m3]	mass density, 323.15 K [kg/m3]	mass density, 333.15 K [kg/m3]	mass density, 343.15 K [kg/m3]	viscosity, 303.15 K [mPa·s]	viscosity, 313.15 K [mPa·s]	viscosity, 323.15 K [mPa·s]	viscosity, 333.15 K [mPa·s]	viscosity, 343.15 K [mPa·s]
w1 = 0.2999	1091.95	1087.46	1082.24	1075.89	1068.32	–	–	–	–	–
w1 = 0.3001	–	–	–	–	–	1.795	1.446	1.196	1.012	0.872

NCCO [2-aminoethan-1-ol] + O
[2], w1 = 0.3002
Conditions	mass density [kg/m3]	viscosity [mPa·s]
303.15 K	1013.02	2.093
313.15 K	1007.98	1.603
323.15 K	1003.42	1.271
333.15 K	997.157	1.037
343.15 K	989.924	0.8681

C[NH+](CCO)CCO.[Cl-] [2-hydroxy-N-(2-hydroxyethyl)-N-methylethanaminium chloride]
[1], 101.33 kPa
Conditions	mass density [kg/m3]	viscosity [mPa·s]
303.15 K	1180.42	512.1
313.15 K	1174.71	278.2
323.15 K	1169.24	164.2
333.15 K	1163.75	104.1
343.15 K	1158.29	70.45

C[NH+](CCO)CCO.[Cl-] [2-hydroxy-N-(2-hydroxyethyl)-N-methylethanaminium chloride] + O
[2]
Conditions	mass density, 303.15 K [kg/m3]	mass density, 313.15 K [kg/m3]	mass density, 323.15 K [kg/m3]	mass density, 333.15 K [kg/m3]	mass density, 343.15 K [kg/m3]	viscosity, 303.15 K [mPa·s]	viscosity, 313.15 K [mPa·s]	viscosity, 323.15 K [mPa·s]	viscosity, 333.15 K [mPa·s]	viscosity, 343.15 K [mPa·s]
w1 = 0.3001	–	–	–	–	–	1.539	1.265	1.067	0.8862	0.7911
w1 = 0.3006	1058.44	1053.89	1049.23	1043.31	1037.05	–	–	–	–	–

C[NH+](CCO)CCO.C[NH+](CCO)CCO.C[NH+](CCO)CCO.O=P([O-])([O-])[O-] [2-hydroxy-N-(2-hydroxyethyl)-N-methylethanaminium phosphate]
[1], 101.33 kPa
Conditions	mass density [kg/m3]	viscosity [mPa·s]
303.15 K	1215.95	–
313.15 K	1208.49	2483
323.15 K	1200.88	1426
333.15 K	1193.23	822.5
343.15 K	1185.52	385.4

C[NH+](CCO)CCO.C[NH+](CCO)CCO.C[NH+](CCO)CCO.O=P([O-])([O-])[O-] [2-hydroxy-N-(2-hydroxyethyl)-N-methylethanaminium phosphate] + O
[2]
Conditions	mass density, 303.15 K [kg/m3]	mass density, 313.15 K [kg/m3]	mass density, 323.15 K [kg/m3]	mass density, 333.15 K [kg/m3]	mass density, 343.15 K [kg/m3]	viscosity, 303.15 K [mPa·s]	viscosity, 313.15 K [mPa·s]	viscosity, 323.15 K [mPa·s]	viscosity, 333.15 K [mPa·s]	viscosity, 343.15 K [mPa·s]
w1 = 0.3001	–	–	–	–	–	2.63	2.125	1.805	1.594	1.455
w1 = 0.3007	1075.32	1070.31	1063.44	1055.39	1045.38	–	–	–	–	–

F[B-](F)(F)F.[NH3+]CCO [2-hydroxyethanaminium tetrafluoroborate]
[1], 101.33 kPa
Conditions	mass density [kg/m3]
303.15 K	1490.57
313.15 K	1482.62
323.15 K	1474.94
333.15 K	1467.85
343.15 K	1464.59

[1], 101.33 kPa, Concentric cylinders viscometry
Conditions	viscosity [mPa·s]
303.15 K	59.39
313.15 K	48.68
333.15 K	32.85
343.15 K	27.84

F[B-](F)(F)F.[NH3+]CCO [2-hydroxyethanaminium tetrafluoroborate] + O
[2], w1 = 0.3004
Conditions	mass density [kg/m3]	viscosity [mPa·s]
303.15 K	1116.48	1.007
313.15 K	1110.85	0.8573
323.15 K	1104.95	0.7412
333.15 K	1098.99	0.6743
343.15 K	1093.41	0.5896

CN(CCO)CCO [N-methyldiethanolamine]
[1], 101.33 kPa
Conditions	mass density [kg/m3]
303.15 K	1033.74
313.15 K	1026.72
323.15 K	1019.48
333.15 K	1012.32
343.15 K	1002.25

[1], 101.33 kPa, Concentric cylinders viscometry
Conditions	viscosity [mPa·s]
303.15 K	57.69
313.15 K	34.79
323.15 K	21.88
333.15 K	14.6
343.15 K	9.855

CN(CCO)CCO [N-methyldiethanolamine] + O
[2], w1 = 0.3002
Conditions	mass density [kg/m3]	viscosity [mPa·s]
303.15 K	1022.9	2.612
313.15 K	1018	1.937
323.15 K	1012.96	1.505
333.15 K	1006.92	1.207
343.15 K	–	0.8944

OCCN(CCO)CCO [triethanolamine]
[1], 101 kPa
Conditions	mass density [kg/m3]	viscosity [mPa·s]
303.15 K	1114.43	398.2
313.15 K	1108.34	195.9
323.15 K	1102.23	103.6
333.15 K	1095.96	60.81
343.15 K	1089.6	37.94

OCCN(CCO)CCO [triethanolamine] + CCCCn1cc[n+](C)c1.F[B-](F)(F)F
[2]
Conditions	mass density, 303.15 K [kg/m3]	mass density, 313.15 K [kg/m3]	mass density, 323.15 K [kg/m3]	mass density, 333.15 K [kg/m3]	mass density, 343.15 K [kg/m3]	viscosity, 303.15 K [mPa·s]	viscosity, 313.15 K [mPa·s]	viscosity, 323.15 K [mPa·s]	viscosity, 333.15 K [mPa·s]	viscosity, 343.15 K [mPa·s]
w1 = 0.1998	1175.8	1168.63	1161.5	1154.44	1147.42	57.94	35.89	24.02	17.13	12.82
w1 = 0.3987	1161.1	1154.41	1146.93	1139.88	1132.87	69.54	39.71	25.08	17.08	12.32
w1 = 0.5005	1150.08	1142.89	1135.48	1128.12	1120.99	86.62	47.22	28.82	19.11	13.48
w1 = 0.6	1146.42	1139.61	1132.76	1125.89	1119	116.5	60.67	36.1	23.35	16.14
w1 = 0.7999	1129.56	1123.21	1116.73	1110.16	1103.54	186.3	99.43	54.02	33.63	22.33
w1 = 1	1114.43	1108.34	1102.23	1095.96	1089.6	398.2	195.9	103.6	60.81	37.94

OCCN(CCO)CCO [triethanolamine] + O
[2], w1 = 0.3
Conditions	mass density [kg/m3]	viscosity [mPa·s]
303.15 K	1042.75	2.354
313.15 K	1037.93	1.799
323.15 K	1032.21	1.425
333.15 K	1023.74	1.172
343.15 K	1011.68	0.9591
